From patent US20170190744A1 (Vicuron Pharmaceuticals, Inc., priority 2015, published 2017)
In brackets after ≈: the same amount, converted by molar mass. Like-named read-outs stand apart in the source and are kept apart here.

Legend:
[1] = test system: MSSA Staph. aureus Smith 819; experiment: MIC (microbiological activity); assay type: cell-based; settings: Staphylococcus aureus
[2] = test system: MRSA Staph. aureus 3817; experiment: MIC (microbiological activity); assay type: cell-based; settings: Staphylococcus aureus
[3] = test system: CR-BSI due to gram-positive bacterial pathogens; experiment: Catheter-related blood stream infection (CR-BSI) trial: efficacy; assay type: in vivo, human; settings: microbiological ITT population; dalbavancin 1000 mg day 1 + 500 mg day 8 IV; vancomycin 1000 mg IV every 12 hours
Description: This study evaluated the safety and efficacy (clinical and microbiological) of a weekly dosing regimen of dalbavancin in the treatment of adults with catheter-related blood stream infection (CR-BSI) due to gram-positive bacterial pathogens, relative to the standard care of treatment, vancomycin.
Patients with CR-BSI due to suspected or known Gram-positive pathogen(s) who met the inclusion/exclusion criteria were randomized to one of two treatment arms in this open-label, comparative, multi-center study. Dalbavancin was administered once weekly in weekly dalbavancin and comparator (vancomycin) was administered daily in vancomycin. Catheter removal was required for patients with Staphylococcus aureus infection; catheter management was left to the Investigator's discretion for patients with coagulase-negative staphylococci (CoNS) infection. Efficacy was clinically based on the improvement or resolution of clinical signs and symptoms of CR-BSI such that no additional antibacterials were warranted, and microbiologically on the eradication or presence of the baseline or other pathogens. […]
Efficacy was evaluated based on clinical and microbiological responses.
For the primary efficacy analysis, 95% confidence intervals were also determined, and for prognostic factor analyses using the primary efficacy variable, logistic regression was used.

[4] = test system: gram positive bacteria; experiment: MIC by broth microdilution (NCCLS), with or without 30% bovine serum (Example 19); assay type: cell-based
Description: (§1) The compounds were prepared according to the examples above and the methods described in U.S. Patent Application Publication No. 2004/0142883. Individual dalbavancin compounds were purified by HPLC. […] Before dissolution, each sample was analyzed by HPLC and quantified. […] Louis, Mo.), Gentamycin (GE) (Sigma Chemical Co., St. Louis, Mo.), Penicillin G (Pen.G) (Sigma Chemical Co., St. Louis, Mo.), and Amphotericin B (Amph.B) (Sigma Chemical Co., St. Louis, Mo.). The microorganisms used were reference strains obtained from the American Type Culture Collection (ATCC) (Rockville, Md.), SmithKline and French Laboratories (SKF), and the Upjohn Company (UC) (Kalamazoo, Mich.).

[5] = test system: gram-negative bacteria; experiment: as above; assay type: cell-based
Description: as §1

[6] = test system: gram-positive bacteria; experiment: MIC by broth microdilution (NCCLS), IsoB0 and reference compounds; assay type: cell-based
Description: Müller Hinton broth (Difco Laboratories, Detroit, Mich., USA) adjusted with CaCl2 and MgCl2 to a final concentrations of 20 mg/L and 10 mg/L respectively.
Adult bovine serum (BS) (batch A05123-159 PAA Laboratories GmBH Haidmannweg Pasching Austria).
The microorganisms used are reference standard strains from the American Type Culture Collection (ATCC, Rockville, USA), Smith Kline and French Laboratories (SKF) and the Upjohn Company (UC, Kalamazoo, Mich., USA).
(§2) MICs were determined by the broth microdilution methodology following the standard NCCLS procedure, with or without 30% bovine serum, using bacterial inocula of approximately 5×10^5 CFU/mL. Tests were read after 20-24 h incubation at 35° C.

[7] = test system: Candida albicans SKF 2270; experiment: MIC by broth microdilution (NCCLS), with or without 30% bovine serum (Example 19); assay type: cell-based; settings: Candida albicans, SKF2270
Description: MICs were determined by the broth microdilution methodology following the standard NCCLS procedure (NCCLS Document M7-A6, Vol. 23, No. 2, “Methods for dilution antimicrobial susceptibility tests for bacteria that grow aerobically.” Approved Guideline. January 2003, which can be herein incorporated by reference in its entirety), with or without 30% adult bovine serum (BS) (PAA Laboratories GmBH, Haidmannweg Pasching Austria), using bacterial innocula at approximately 5×10^5 CFU/ml. The media employed included cation-adjusted Müller Hinton broth (Difco Laboratories, Detroit, Mich.) that was used that was adjusted with CaCl2 and MgCl2 to a final concentration of 20 mg/L and 10 mg/L, respectively. Tests were read following 20-24 hours of incubation at 35° C.

[8] = test system: gram-negative bacteria; experiment: MIC by broth microdilution (NCCLS), IsoB0 and reference compounds; assay type: cell-based
Description: as §2

[9] = test system: Candida albicans SKF2270; experiment: as above; assay type: cell-based
[10] = target: human α-glycoprotein; experiment: Protein binding by isothermal titration microcalorimetry; settings: 25° C.
Description: For comparison, similar experiments with some necessary modifications were performed using teicoplanin.
Teicoplanin was studied with human albumin and α-glycoprotein.
Integrated heat effects, after correction for heats of dilution, were analyzed by non-linear regression using a simple single-site binding model with the standard Microcal ORIGIN software package. Raw data (μcal/sec) for each injection were integrated to give the total heat effect per addition, then divided by amount of injectant to give kcal/mole of injectant. The same integration was applied for control dilution effects, and this was subtracted from the actual titration data. This provided a differential of the binding curve in which the extent of binding is proportional to the total heat liberated (or absorbed). This was then analyzed by non-linear regression methods in terms of various standard binding models. The simplest model assumes simple non-competitive binding equilibrium, and gives three parameters:

[11] = ESI mass spectroscopy of multimers in solution; assay type: physicochemical; settings: ESI-MS
Description: Experiments were performed using an Applied Biosystem API III+ mass spectrometer equipped with a TurbolonSpray source, a Triple Quadrupole analyzer, operating in positive ion mode.
The mass spectra were obtained in electrospray positive mode on a Finnigan LCQ^Deca ion trap instrument previously tuned and calibrated in electrospray mode using Ultramark 1621, caffeine and MRFA (L-metionyl-arginyl-phenilalanyl-arginine).

[12] = Enterococcus faecalis, ATCC7080
[13] = Enterococcus faecalis, ATCC29212
[14] = Staphylococcus aureus, ATCC19636
[15] = Staphylococcus aureus, ATCC29213
[16] = Staphylococcus epidermidis, ATCC12228

Compound: CN[C@H](CC(C)C)C(=O)N[C@H]1C(=O)N[C@@H](CC(N)=O)C(=O)N[C@H]2C(=O)N[C@H]3C(=O)N[C@H](C(=O)N[C@H](C(=O)O)c4cc(O)cc(O)c4-c4cc3ccc4O)[C@H](O)c3ccc(c(Cl)c3)Oc3cc2cc(c3O[C@@H]2O[C@H](CO)[C@@H](O)[C@H](O)[C@H]2O[C@H]2C[C@](C)(N)[C@H](O)[C@H](C)O2)Oc2ccc(cc2Cl)[C@H]1O [Vancomycin, vancomycin, reference compound]
- MIC [1]: 0.5 µg/mL (≈ 0.345 µM)
- MIC [2]: 0.5 µg/mL (≈ 0.345 µM)
- overall response success rate at TOC [3]: 50.0%
- MIC [4]: 1 µg/mL (≈ 0.69 µM)
- MIC [4, 12]: 1 µg/mL (≈ 0.69 µM)
- MIC [4, 13]: 2 µg/mL (≈ 1.38 µM)
- MIC [4, 14]: 1 µg/mL (≈ 0.69 µM)
- MIC [4, 15]: 2 µg/mL (≈ 1.38 µM)
- MIC [4, 16]: 2 µg/mL (≈ 1.38 µM)
- MIC ([4]; Streptococcus pneumoniae, UC41): 0.5 µg/mL (≈ 0.345 µM)
- MIC [5]: > 128 µg/mL
- MIC ([5]; Escherichia coli): > 128 µg/mL
- MIC ([5]; Escherichia coli, ATCC25922): > 128 µg/mL
- MIC ([5]; Proteus vulgaris, ATCC881): > 128 µg/mL
- MIC [6, 12]: 1 µg/mL (≈ 0.69 µM)
- MIC [6, 13]: 2 µg/mL (≈ 1.38 µM)
- MIC [6, 14]: 1 µg/mL (≈ 0.69 µM)
- MIC [6, 15]: 2 µg/mL (≈ 1.38 µM)
- MIC [6, 16]: 2 µg/mL (≈ 1.38 µM)
- MIC ([6]; Streptococcus pneumoniae, UC41): 0.5 µg/mL (≈ 0.345 µM)
- MIC ([6]; Streptococcus pyogenes): 1 µg/mL (≈ 0.69 µM)
- MIC [7]: > 128 µg/mL
- MIC [8]: > 128 µg/mL
- MIC ([8]; Escherichia coli): > 128 µg/mL
- MIC ([8]; Escherichia coli, ATCC25922): > 128 µg/mL
- MIC ([8]; Proteus vulgaris, ATCC881): > 128 µg/mL
- MIC [9]: > 128 µg/mL

Compound: teicoplanin
- apparent binding affinity Ka, α-glycoprotein [10]: 0.07 (±0.01) × 10^5M^−1
- multimers in solution [11]: does not show multimeric complexes
